{
  "source": "PubChem BioAssay AID1963442",
  "about": "(Molecular Pharmacology Branch, DTP, NCI, 2024)",
  "tested_on": "MPNST complex spheroid with HUVEC/MSC, growth, % test/control",
  "test": "Anticancer human tumor MPNST cell line growth inhibition [Asc];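 also: compounds left on spheroids for seven days before reading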",
  "conditions": "for viability, T/C: stronger effect = lower value",
  "procedure": "Multicellular complex tumor spheroid response to apoptosis pathway targeting inhibitors Alrizomadlin, Pelcitoclax, and Dasminapant in combination with a variety of drugs and investigational agents in selected tumor cell lines\nThe MDM2 inhibitor alrizomadlin, the Bcl-2/Bcl-xL inhibitor pelcitoclax, and the IAPs inhibitor dasminapant were evaluated both individually and in combination with standard of care and investigational anticancer small molecules within a complex spheroid model of solid tumors. . Complex spheroids include a stromal component modeled by human endothelial cells (HUVEC) and fibroblasts modeled by human mesenchymal stem cells (MSCs). The concentration ranges selected for each drug and investigational agent were based upon clinically achievable concentrations if the clinical Cmax of the agent was known.\nCompounds. The drugs and investigational agents: alrizomadlin (APG-115; NSC831270), pelcitoclax (APG-1252; NSC835773), dasminapant (APG-1387;NSC834197), TAK-243 (NSC785004), copanlisib (NSC809693), olaparib (NSC753686), talazoparib (NSC767125), cobimetinib (NSC 768068), eltanexor (KPT-8602, NSC 794443), abemaciclib (NSC 768073), sotorasib (NSC818433), adagrasib (NSC 831453), MRTX-1133 (NSC 836407), Iadademestat (ORY1001, NSC 806812), and RMC-4630 (NSC839698), were obtained from the NCI Developmental Therapeutics Program Chemical Repository. The FDA-approved anticancer drug set is available from the Developmental Therapeutics Program at https://dtp.cancer.gov/organization/dscb/obtaining/available plates.htm. […] The stock solutions were prepared in dimethyl sulfoxide (DMSO, Sigma-Aldrich, St. Louis, MO, cat. D2650) at 800-fold the tested concentration and stored at -70 degrees C prior to their use. All drugs and investigational agents were tested over a range starting from a high concentration at or near the clinical Cmax and decreasing in half-log increments. If the clinical Cmax for an agent had not been determined, the highest concentration tested was 10 microM.\nThe patient-derived cancer (PDC) cell lines include five colon adenocarcinomas: 186277-243-T-J2-PDC, 616215-338-R-J1-PDC, 439559-082-T-J2-PDC, 463943-066-T-J2-PDC, and 519858-162-T-J1-PDC; three pancreatic carcinomas: 323965-272-R-J2-PDC, 521955-158-R6-J3-PDC, and 521955-158-R2-J5-PDC; two uterine sarcomas: 327498-152-R-J2-PDC and 993429-296-R-J1-PDC; two rhabdomyosarcomas: 755483-174-R-J1-PDC and 772245-204-R-J1-PDC; two soft tissue sarcomas: 126254-015-R-J1-PDC and 494315-158-R-J1-PDC; two malignant fibrous histiocytomas: 317291-083-R-J1-PDC and 596521-263-R-J1-PDC; two breast carcinomas: 171881-019-R-J1-PDC and 885512-296-R-J2-PDC; and one ovarian carcinoma: 6556581-035-R-J-PDC were obtained from the NCI PDMR, (https://pdmr.cancer.gov). The established cell lines HSSY-2 synovial sarcoma (RRID:CVCL 8719), SYO-1 synovial sarcoma (RRID:CVCL_7146), MPNST malignant peripheral neural sheath tumor were obtained from the Sloan Kettering Institute. The following established cell lines were purchased from the American Type Culture Collection (ATCC, Manassas, VA), Sor the received from the NCI repository:, PANC-1 pancreatic carcinoma (CRL-1469, RRID:CVCL_0480), OVCAR-5 ovarian carcinoma (RRID:CVCL_1628), OVCAR-8 ovarian carcinoma (RRID:CVCL_1629), , MCF-7 breast carcinoma (CRL-12584, RRID:CVCL_0031), MDA-MB-231 breast carcinoma (CRL-12532, RRID:CVCL_0062), NCI-H1876 small cell lung carcinoma (CRL-5902, RRID:CVCL_1503), NCI-H510A small cell lung carcinoma (HTB-184, RRID:CVCL_1565), NCI-H1417 (CRL-5869, RRID:CVCL_1469), and NCI-H196 small cell lung carcinoma (CRL-5823, RRID:CVCL_1509). Dr. Peter Houghton (Greehey Children's Cancer Research Institute, University of Texas Health Science Center, San Antonio, TX) provided Rh-18 rhabdomyosarcoma (RRID:CVCL_1659). Pooled donor human umbilical vein endothelial cells (HUVEC, Lonza, cat. CC-2519) and human mesenchymal stem cells (hMSC, Lonza, cat. PT-2501) were purchased from Lonza (Walkersville, MD).\nCell Culture. […]",
  "note": "“And” between values parts separate entries of the source, which are not always exact repeats. Equal entries are not always repeated.",
  "data": [
    {"compound": "NC1CCC(NC2CC2c2ccccc2)CC1", "note": "(stereo unspecified)", "values": [
      {"measurement": "viability, T/C", "setting": "compound 0.000316 µM", "value": "78.8% and 74.6% and 64.2%"},
      {"measurement": "viability, T/C", "setting": "compound 0.001 µM", "value": "78.6% and 79.4% and 71.8%"},
      {"measurement": "viability, T/C", "setting": "compound 0.00316 µM", "value": "76.3% and 81% and 80.4%"},
      {"measurement": "viability, T/C", "setting": "compound 0.01 µM", "value": "74% and 88.9% and 68.4%"},
      {"measurement": "viability, T/C", "setting": "compound 0.0316 µM", "value": "83.4% and 76.8% and 64.2%"},
      {"measurement": "viability, T/C", "setting": "compound 0.1 µM", "value": "78.2% and 98.4% and 47.2%"},
      {"measurement": "IC50", "setting": "curve of compound", "value": "> 100 nM and 82.7 nM"}
    ]},
    {"compound": "O=C(c1cc(Cc2n[nH]c(=O)c3ccccc23)ccc1F)N1CCN(C(=O)C2CC2)CC1", "values": [
      {"measurement": "viability, T/C", "setting": "compound 0.0316 µM", "value": "89.3% and 114% and 79.2%"},
      {"measurement": "viability, T/C", "setting": "compound 0.1 µM", "value": "103% and 78.6% and 69.5%"},
      {"measurement": "viability, T/C", "setting": "compound 0.316 µM", "value": "109% and 60.3% and 96.9%"},
      {"measurement": "viability, T/C", "setting": "compound 1 µM", "value": "83.9% and 63.7% and 82.7%"},
      {"measurement": "viability, T/C", "setting": "compound 3.16 µM", "value": "71.8% and 70.9% and 40.7%"},
      {"measurement": "viability, T/C", "setting": "compound 10 µM", "value": "77.1% and 48.1% and 34.8%"},
      {"measurement": "IC50", "setting": "curve of compound", "value": "> 10000 nM and 2440 nM"}
    ]},
    {"compound": "O=C(c1ccc(F)c(F)c1Nc1ccc(I)cc1F)N1CC(O)([C@@H]2CCCCN2)C1", "values": [
      {"measurement": "viability, T/C", "setting": "compound 0.00316 µM", "value": "100% and 84.6% and 73.2%"},
      {"measurement": "viability, T/C", "setting": "compound 0.01 µM", "value": "60.5% and 110% and 78.5%"},
      {"measurement": "viability, T/C", "setting": "compound 0.0316 µM", "value": "58.9% and 123% and 126%"},
      {"measurement": "viability, T/C", "setting": "compound 0.1 µM", "value": "65.1% and 103% and 84.6%"},
      {"measurement": "viability, T/C", "setting": "compound 0.316 µM", "value": "67.3% and 72% and 85.4%"},
      {"measurement": "viability, T/C", "setting": "compound 1 µM", "value": "13.1% and 29.3% and 32.3%"},
      {"measurement": "IC50", "setting": "curve of compound", "value": "448 nM and 572 nM and 682 nM"}
    ]},
    {"compound": "O=C(c1cc(Cc2n[nH]c(=O)c3ccccc23)ccc1F)N1CCN(C(=O)C2CC2)CC1", "note": "+ CCN1C(C(=O)NC23CCC(C(=O)O)(CC2)CC3)C(c2cccc(Cl)c2F)C2(C(=O)Nc3cc(Cl)ccc32)C12CCCCC2", "values": [
      {"measurement": "IC50", "setting": "curve of first compound, second compound 0.03 µM", "value": "> 10000", "unit": "nM"},
      {"measurement": "IC50", "setting": "curve of first compound, second compound 0.0949 µM", "value": "> 10000", "unit": "nM"},
      {"measurement": "IC50", "setting": "curve of first compound, second compound 0.3 µM", "value": "> 10000", "unit": "nM"},
      {"measurement": "IC50", "setting": "curve of first compound, second compound 0.949 µM", "value": "> 10000", "unit": "nM"},
      {"measurement": "IC50", "setting": "curve of first compound, second compound 3 µM", "value": "> 10000", "unit": "nM"},
      {"measurement": "viability, T/C", "setting": "second compound 0.03 µM, first compound 0.0316 µM", "value": 122, "unit": "%"},
      {"measurement": "viability, T/C", "setting": "second compound 0.03 µM, first compound 0.1 µM", "value": 113, "unit": "%"},
      {"measurement": "viability, T/C", "setting": "second compound 0.03 µM, first compound 0.316 µM", "value": 101, "unit": "%"},
      {"measurement": "viability, T/C", "setting": "second compound 0.03 µM, first compound 1 µM", "value": 80.6, "unit": "%"},
      {"measurement": "viability, T/C", "setting": "second compound 0.03 µM, first compound 3.16 µM", "value": 65.8, "unit": "%"},
      {"measurement": "viability, T/C", "setting": "second compound 0.03 µM, first compound 10 µM", "value": 50.1, "unit": "%"},
      {"measurement": "viability, T/C", "setting": "second compound 0.0949 µM, first compound 0.0316 µM", "value": 141, "unit": "%"},
      {"measurement": "viability, T/C", "setting": "second compound 0.0949 µM, first compound 0.1 µM", "value": 115, "unit": "%"},
      {"measurement": "viability, T/C", "setting": "second compound 0.0949 µM, first compound 0.316 µM", "value": 121, "unit": "%"},
      {"measurement": "viability, T/C", "setting": "second compound 0.0949 µM, first compound 1 µM", "value": 106, "unit": "%"},
      {"measurement": "viability, T/C", "setting": "second compound 0.0949 µM, first compound 3.16 µM", "value": 97.9, "unit": "%"},
      {"measurement": "viability, T/C", "setting": "second compound 0.0949 µM, first compound 10 µM", "value": 61.5, "unit": "%"},
      {"measurement": "viability, T/C", "setting": "second compound 0.3 µM, first compound 0.0316 µM", "value": 122, "unit": "%"},
      {"measurement": "viability, T/C", "setting": "second compound 0.3 µM, first compound 0.1 µM", "value": 115, "unit": "%"},
      {"measurement": "viability, T/C", "setting": "second compound 0.3 µM, first compound 0.316 µM", "value": 117, "unit": "%"},
      {"measurement": "viability, T/C", "setting": "second compound 0.3 µM, first compound 1 µM", "value": 93.1, "unit": "%"},
      {"measurement": "viability, T/C", "setting": "second compound 0.3 µM, first compound 3.16 µM", "value": 100, "unit": "%"},
      {"measurement": "viability, T/C", "setting": "second compound 0.3 µM, first compound 10 µM", "value": 71.4, "unit": "%"},
      {"measurement": "viability, T/C", "setting": "second compound 0.949 µM, first compound 0.0316 µM", "value": 111, "unit": "%"},
      {"measurement": "viability, T/C", "setting": "second compound 0.949 µM, first compound 0.1 µM", "value": 113, "unit": "%"},
      {"measurement": "viability, T/C", "setting": "second compound 0.949 µM, first compound 0.316 µM", "value": 118, "unit": "%"},
      {"measurement": "viability, T/C", "setting": "second compound 0.949 µM, first compound 1 µM", "value": 100, "unit": "%"},
      {"measurement": "viability, T/C", "setting": "second compound 0.949 µM, first compound 3.16 µM", "value": 100, "unit": "%"},
      {"measurement": "viability, T/C", "setting": "second compound 0.949 µM, first compound 10 µM", "value": 78.2, "unit": "%"},
      {"measurement": "viability, T/C", "setting": "second compound 3 µM, first compound 0.0316 µM", "value": 105, "unit": "%"},
      {"measurement": "viability, T/C", "setting": "second compound 3 µM, first compound 0.1 µM", "value": 107, "unit": "%"},
      {"measurement": "viability, T/C", "setting": "second compound 3 µM, first compound 0.316 µM", "value": 116, "unit": "%"},
      {"measurement": "viability, T/C", "setting": "second compound 3 µM, first compound 1 µM", "value": 90.9, "unit": "%"},
      {"measurement": "viability, T/C", "setting": "second compound 3 µM, first compound 3.16 µM", "value": 88.8, "unit": "%"},
      {"measurement": "viability, T/C", "setting": "second compound 3 µM, first compound 10 µM", "value": 72.2, "unit": "%"}
    ]}
  ]
}
